From US5534533A, “Carboxylate derivatives exhibiting phospholipase A2 inhibitory activity” (Shionogi & Co., Ltd., priority 1993, dated 1996) come the findings set out here.

What is called IC50 is the point on the concentration scale where inhibition reaches its midpoint.

The target of one experiment is T1, Human secretory PLA2 (Homo sapiens, UniProt P14555).
T1 sequence (P14555 21-144): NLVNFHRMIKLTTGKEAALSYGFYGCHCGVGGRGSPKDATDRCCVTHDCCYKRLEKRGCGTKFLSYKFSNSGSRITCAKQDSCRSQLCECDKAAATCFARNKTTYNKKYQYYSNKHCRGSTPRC
Put plainly: Secretory PLA2 inhibitory activity (diheptanoyl thio PC substrate, absorbance at 405 nm). The format is biochemical. The settings on record: diheptanoyl thio PC 1 mM, Triton X100 0.3 mM, pH 7.3, CaCl2 10 mM, 30 minutes, read-out: s-PLA2 Inhibition IC50. Put shortly: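 Diheptanoyl thio-PC (1 mM) with Triton X100 (0.3 mM) and DTNB (125 μM) in Tris 25 mM pH 7.3, CaCl2 10 mM, KCl 100 mM, BSA 1.0 mg/ml. Absorbance change at 405 nm read at 30 min; percent inhibition corrected for no-enzyme blanks, IC50 from log-concentration plot.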

Experiment [1] has as its target T2, intracellular PLA2 (cytosolic PLA2, cPLA2) (Homo sapiens, UniProt P47712).
T2 sequence (P47712 1-749): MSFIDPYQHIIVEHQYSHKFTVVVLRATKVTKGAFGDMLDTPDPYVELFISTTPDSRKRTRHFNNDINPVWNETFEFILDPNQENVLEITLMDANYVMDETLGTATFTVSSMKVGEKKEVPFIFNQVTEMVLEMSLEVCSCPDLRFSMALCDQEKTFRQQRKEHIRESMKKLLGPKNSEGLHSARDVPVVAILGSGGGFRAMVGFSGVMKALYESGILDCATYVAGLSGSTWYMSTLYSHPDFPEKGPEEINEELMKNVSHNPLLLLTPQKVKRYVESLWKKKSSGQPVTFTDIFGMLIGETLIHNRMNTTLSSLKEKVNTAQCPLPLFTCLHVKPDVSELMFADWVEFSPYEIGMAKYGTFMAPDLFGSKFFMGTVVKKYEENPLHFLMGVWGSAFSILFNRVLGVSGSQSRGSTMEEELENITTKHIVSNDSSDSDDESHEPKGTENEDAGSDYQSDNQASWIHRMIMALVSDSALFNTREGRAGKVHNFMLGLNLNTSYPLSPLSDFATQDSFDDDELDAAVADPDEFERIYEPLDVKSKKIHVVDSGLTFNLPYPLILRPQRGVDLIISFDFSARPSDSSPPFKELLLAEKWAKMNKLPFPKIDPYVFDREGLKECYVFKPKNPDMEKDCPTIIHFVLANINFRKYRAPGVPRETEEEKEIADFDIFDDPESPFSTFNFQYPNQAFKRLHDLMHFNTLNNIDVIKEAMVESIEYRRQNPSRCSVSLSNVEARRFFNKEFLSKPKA
The experiment is described as follows: Intracellular PLA2 (cPLA2) inhibitory activity (14C-arachidonyl phosphatidylcholine substrate). Type of experiment: biochemical. The settings on record: 2 μM radiolabelled phosphatidylcholine, 1 μM dioleoylglycerol, 1 mM CaCl2, pH 7.4; read-out: c-PLA2 Inhibition IC50. Put shortly: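 Sonicated vesicles carrying 2 μM 1-palmitoyl-2-[14C]arachidonyl-phosphatidylcholine with 1 μM dioleoylglycerol served as substrate. Buffer: 50 mM Hepes pH 7.4, 150 mM NaCl, 1 mM CaCl2, 2 mM DTT, 0.1 mg/ml BSA. IC50 values were derived.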

For the next experiment, the system named is adjuvant arthritis. The experiment is described as follows: Adjuvant arthritis in rats (Mycobacterium butyricum), foot edema volume. The format is in vivo, Crj/LEW male rat. The settings on record: rat, 10 mg/kg P.O. daily, 17-18 days after adjuvant; *P < 0.05 (Examples 1, 69), **P < 0.01 (Examples 2, 23, 25) to vehicle control; Example 29 unmarked. The procedure: Adjuvant arthritis was induced by subcutaneously administering a suspension of 0.5 mg of Mycobacterium butyricum (Difco) in 0.05 ml of liquid paraffin to the pad of left foot of Crj/LEW male rat of 7-8 weeks age weighing 150-170 g. After administering the adjuvant, the volume of edema of both feet was daily measured by a plethysmometer. The adjuvant had been administered, and since the following day, a suspension of the test compound in 0.6% arabic gum was orally administered every day, and 17-18 days after administering the adjuvant, the volume of edema of the foot and that of foot to which no adjuvant had been administered were compared with each other. Volume of the edema in control group was defined as 100%, which value was obtained by subtracting the volume of foot of normal rat (1.2 ml) from the volume measured, and inhibitory percent obtained by using the inhibitor was defined as inhibitory rate. Using the inhibitory rate, effectiveness was determined by Student's-t assay.

With `COc1c(C)c(OC(=O)c2c(C)c(C)c(OCCCOc3ccc(C(F)(F)F)cc3)c(C)c2OC)c(C)c(C)c1C(=O)O` [Example 1, 4-[4-[3-(4-Trifluoromethylphenoxy)propyloxy]-2-methoxy-3,5,6-trimethylphenylcarboxy]-2-methoxy-3,5,6-trimethylbenzoic acid], the IC50 at Human secretory PLA2 stood at 21 µM; in experiment [1] it was 20 µM. In the experiment on adjuvant arthritis, the “Inhibition % (To Nontreated Foot), edema volume” value (shortened to “Inhibition %”) is 43.4%.
As for `COc1c(C)c(OC(=O)c2c(C)c(C)c(OCCCOc3ccc(F)cc3)c(C)c2OC)c(C)c(C)c1C(=O)O` [Example 2, 4-[4-[3-(4-Fluorophenoxy)propyloxy]-2-methoxy-3,5,6-trimethylphenylcarboxy]-2-methoxy-3,5,6-trimethylbenzoic acid], the IC50 at Human secretory PLA2 was 18 µM; in experiment [1], 9 µM. The “Inhibition %” value in the experiment on adjuvant arthritis came out at 52.3%.
As to `COc1c(C)c(OC(=O)c2c(C)c(C)c(OCCCOc3ccc(Cl)cc3)c(C)c2OC)c(C)c(C)c1C(=O)O` [Example 23, 4-{4-[3-(4-Chlorophenoxy)propoxy]-2-methoxy-3,5,6-trimethylbenzoyloxy}-2-methoxy-3,5,6-trimethylbenzoic Acid], the IC50 at Human secretory PLA2 is 9.4 µM; in experiment [1] it was 4 µM. The “Inhibition %” value with adjuvant arthritis is on record as 66.0%.
The matching figures for `COc1c(C)c(OC(=O)c2c(C)c(C)c(OCCCOc3ccc(Br)cc3)c(C)c2OC)c(C)c(C)c1C(=O)O` [Example 25, 4-{4-[3-(4-Bromophenoxy)propoxy]-2-methoxy-3,5,6-trimethylbenzoyloxy}-2-methoxy-3,5,6-trimethylbenzoic Acid]: 4.6 µM, 13 µM and 66.0%.
Turning to `COc1c(C)c(OC(=O)c2c(C)c(C)c(OCCCOc3ccc(C)cc3)c(C)c2OC)c(C)c(C)c1C(=O)O` [Example 29, 4-{4-[3-(4-Methylphenoxy)propoxy]-2-methoxy-3,5,6-trimethylbenzoyloxy}-2-methoxy-3,5,6-trimethylbenzoic Acid], the figures for the IC50 (on Human secretory PLA2; in experiment [1]) were 12 µM and 8.5 µM, respectively. Moreover, the “Inhibition %” value with adjuvant arthritis was found to be 33.1%.
`COc1c(C)c(OC(=O)c2c(C)c(C)c(OCCCN3C(=O)c4ccccc4S3(=O)=O)c(C)c2OC)c(C)c(C)c1C(=O)O` [Example 65, 4-{4-[3-(1, 1 -Dihydroxy-3-oxo-3H-benzo[d]-isothiazole-2-yl)propoxy]-2-methoxy-3,5,6-trimethylbenzoyloxy}-2-methoxy-3,5,6-trimethylbenzoic Acid]: the half-maximal inhibitory concentration (IC50) at Human secretory PLA2 is 6.7 µM; in experiment [1], 21 µM.
The matching figures for `COc1c(C)c(OC(=O)c2c(C)c(C)c(OCCCN3CCC(=C(c4ccccc4)c4ccccc4)CC3)c(C)c2OC)c(C)c(C)c1C(=O)O` [Example 66, 4-{4-[3-(4-Benzhydrylidenepiperidin-1-yl)-propoxy]-2-methoxy-3,5,6-trimethylbenzoyloxy}-2-methoxy-3,5,6-trimethylbenzoic Acid]: 18 µM and 6.8 µM.
As to `COc1c(C)c(OC(=O)c2c(C)c(C)c(OCCCN3CCN(C(c4ccccc4)c4ccccc4)CC3)c(C)c2OC)c(C)c(C)c1C(=O)O` [Example 67, 4-{4-[3-(Di-Phenylmethylpiperazin-1-yl)propoxy]-2-methoxy-3,5,6-trimethylbenzoyloxy}-2-methoxy-3,5,6-trimethylbenzoic Acid], the values for the IC50 (on Human secretory PLA2; in experiment [1]) were 17 µM and 5.1 µM, respectively.
For `COc1c(C)c(OC(=O)c2c(C)c(C)c(OCCCN3CCN(C(c4ccc(F)cc4)c4ccc(F)cc4)CC3)c(C)c2OC)c(C)c(C)c1C(=O)O` [Example 68, 4-{4-[3-(Di-4-Fluorophenylmethylpiperazin-1-yl)-propoxy]-2-methoxy-3,5,6-trimethylbenzoyloxy}-2-methoxy-3,5,6-trimethylbenzoic Acid], in that order: 17 µM and 11 µM.
`COc1c(C)c(OC(=O)c2c(C)c(C)c(OCCCN3CCN(c4ccc(F)cc4)CC3)c(C)c2OC)c(C)c(C)c1C(=O)O` [Example 69, 4-{4-[3-(4-(4-Fluorophenyl)piperazin-1-yl)propoxy]-2-methoxy-3,5,6-trimethylbenzoyloxy}-2-methoxy-3,5,6-trimethylbenzoic Acid]: the values for the IC50 (on Human secretory PLA2; in experiment [1]) were 12 µM and 36 µM, respectively. In the experiment on adjuvant arthritis, the “Inhibition %” value is recorded as 24.6%.
